Measurements from patent publication US20220088121A1, “COMPOSITIONS CONTAINING A PEPTIDE ABLE TO STIMULATE THE GPRC6A-DEPENDENT SIGNALING PATHWAY” (Altergon S.A., priority 2019, published 2022).

Key:
[1] = test system: MA-10 mouse Leydig cell tumour cell lines; assay: Testosterone release from MA-10 mouse Leydig-cell tumour cell cultures; type: cell-based; conditions: experimental models of cell line cultures; Example 1: peptide 10^−6M, 12 hours at 37° C. (FIG. 1)
Procedure: MA-10 mouse Leydig-cell tumour cells, cultured to 90% confluence in 24-well multiwell plates, were stimulated with different agonists for 12 hours at 37° C. under sterile conditions, according to an already validated protocol [Cormier Cell Biol Toxicol. […] The control (CTRL) contained no agonists. The results relate to testosterone release, expressed as ng of testosterone (T) per μg of total protein, obtained from cell extract. […] Significance: *=P<0.05 vs. CTRL.
MA-10 mouse Leydig-cell tumour cells, cultured to 90% confluence in 24-well multiwell plates, were stimulated with different agonists for 12 hours at 37° C. under sterile conditions, according to an already validated protocol [Cormier Cell Biol Toxicol. […] Significance: *, ** and ***=P<0.05, 0.01 and 0.001 respectively vs the baseline control.

[2] = test system: INS-1 rat insulinoma cells; assay: Insulin release from INS-1 insulinoma cell cultures; type: cell-based; conditions: experimental models of cell line cultures
Procedure: INS-1 rat insulinoma cells, cultured to 90% confluence in 24-well multiwell plates, were stimulated with different combinations of secretagogue agonists for 2 hours at 37° C. under sterile conditions, according to an already validated protocol [Hohmeier Diabetes. […] Stimulation with the phosphodiesterase inhibitor IBMX (Gluc 1 mM+IBMX) represents the maximum secretagogue stimulation and positive control of the experiment. […] Significance: *, ** and ***=P<0.05, 0.01 and 0.001 respectively vs the baseline control.

NMYLPPVPPPPVVPTF [SEQ ID 1]
testosterone release [1]: stimulates | insulin release [2]: stimulates
